Laboratory results taken from patent US20230293519A1, “INTEGRIN INHIBITORS AND USES THEREOF IN COMBINATION WITH OTHER AGENTS” (Pliant Therapeutics, Inc., priority 2021, published 2023).

Tests used:
lung Col1a1 expression = assay: Precision cut lung slices from human IPF explants, 3 days; type: cell-based; settings: 3G9 ≥400 ng/mL, compound 5 179 nM, ALK5 inhibitor 1 µM
Text: Explanted lung tissue was obtained from human IPF subjects and inflated with agarose as described in the preceding examples. Biopsy cores were obtained from the agarose-inflated lung tissue. The biopsy cores were subjected to precision slicing to obtain several hundred µm thick. Individual slices were distributed in a multiwell culture plate and cultured for 3 days under control (DMSO) and test compound conditions. The viability of the slices over the course of culturing was confirmed by WST-1 assay of mitochondrial activity.

[1] = SAD and MAD first-in-human studies, plasma LC-MS/MS; type: in vivo; settings: healthy subjects
Procedure: Healthy human subjects (N=85) were selected for single ascending dose (SAD) and multiple ascending dose (MAD) first-in-human studies. A solution for oral administration was prepared, containing 10 mg/mL of compound 5 in a 50:50 mixture of ORA-SWEET® SF (PERRIGO®, Allegan, Michigan) and sterile water for irrigation. Sufficient solution was administered orally to the subjects to provide between 15 mg/dose and 75 mg/dose of compound 5 in the SAD study and between 10 mg/dose and 40 mg/dose of compound 5 in the MAD study. Concentrations of compound 5 were measured in the subjects by obtaining a sample of plasma from each subject at desired intervals, and subjecting the plasma to liquid chromatography-mass spectrometry-mass spectrometry (LC-MS/MS), with quantification using a calibration curve determined from a range of solutions at standardized concentrations. The lower limit of quantitation (LLOQ) of the assay was 1 ng/mL and the calibration curve range was 1 to 500 ng/mL.

pSmad2/Smad2 = assay: Alveolar pSmad2/Smad2 in BAL, prior study (80 mg and 160 mg QD); type: in vivo; settings: p<0.0001
Text: FIG. 12 through FIG. 36 illustrate various results from the clinical trial. […] BAL - bronchoalveolar lavage; pSmad2/Smad2 - ratio of phosphorylated Smad2 to total Smad2; QD - once daily.

[2] = system: bleomycin-treated mice (C57BL/6); assay: Murine bleomycin model: collagen deposition; type: in vivo, mouse
Procedure: Mice (C57BL/6) were divided into healthy (n=15), vehicle-treated (n=15), and test article-treated (n=15 per dose) groups. Mice in the vehicle and test article-treated groups were administered 3 U/kg of bleomycin (Teva Pharmaceuticals; North Wales, PA) via oropharyngeal aspiration while under anesthesia on day 0. Healthy animals were administered water in a similar fashion. Starting on day 7, mice in the control group were administered PBS vehicle, 130 uL, by oral gavage, BID for 14 days. Also starting on day 7, mice in the test group were administered compound 5 in PBS by oral gavage, BID for 14 days, at relative dosages of 1x, 2.5x and 5x. […] From day 14 through day 21, 9 of the 15 mice were administered ^2H2O for labeling. All mice were sacrificed on day 21 and tissues were collected. Samples were prepared for analysis either directly from lung tissue, or by bronchoalveolar lavage, which washes out the bronchiolar and alveolar space with saline to produce a bronchoalveolar lavage fluid (BALF) in which 80-90% of cells are alveolar macrophages.
FIG. 4C is a graph showing that compared to the healthy mice, lung tissue in the vehicle-treated mice experienced a substantial increase in SMAD3 phosphorylation, which is a measure of TGF-β signaling-related kinase activity. […] FIG. 4D is a graph showing that compared to the healthy mice, lung tissue in the vehicle-treated mice experienced a substantial accumulation of new collagen as evidenced by the percentage of lung collagen containing ^2H-labeled hydroxyproline.
FIGS. 4F, 4G, and 4H show high resolution second harmonic generation images of fibrillar collagen (collagen type I and III) taken from formalin-fixed paraffin embedded lung tissue sections from a healthy mouse lung (4F), a vehicle-treated mouse lung (4G) and a test-article treated mouse lung (4H; 500 mg/kg BID). Color scale is indicative of collagen fiber density (red = most dense; blue = least dense).
FIG. 4I is a graph showing the percent total collagen area in the second harmonic generation mouse lung images. […]

αvβ6 = αvβ6 (Homo sapiens (Human), UniProt P06756+P18564); assay: [18F]FP-R01-MG-F2 PET/CT target engagement in participants with IPF; type: in vivo
Chain of αvβ6 (P06756 31-889): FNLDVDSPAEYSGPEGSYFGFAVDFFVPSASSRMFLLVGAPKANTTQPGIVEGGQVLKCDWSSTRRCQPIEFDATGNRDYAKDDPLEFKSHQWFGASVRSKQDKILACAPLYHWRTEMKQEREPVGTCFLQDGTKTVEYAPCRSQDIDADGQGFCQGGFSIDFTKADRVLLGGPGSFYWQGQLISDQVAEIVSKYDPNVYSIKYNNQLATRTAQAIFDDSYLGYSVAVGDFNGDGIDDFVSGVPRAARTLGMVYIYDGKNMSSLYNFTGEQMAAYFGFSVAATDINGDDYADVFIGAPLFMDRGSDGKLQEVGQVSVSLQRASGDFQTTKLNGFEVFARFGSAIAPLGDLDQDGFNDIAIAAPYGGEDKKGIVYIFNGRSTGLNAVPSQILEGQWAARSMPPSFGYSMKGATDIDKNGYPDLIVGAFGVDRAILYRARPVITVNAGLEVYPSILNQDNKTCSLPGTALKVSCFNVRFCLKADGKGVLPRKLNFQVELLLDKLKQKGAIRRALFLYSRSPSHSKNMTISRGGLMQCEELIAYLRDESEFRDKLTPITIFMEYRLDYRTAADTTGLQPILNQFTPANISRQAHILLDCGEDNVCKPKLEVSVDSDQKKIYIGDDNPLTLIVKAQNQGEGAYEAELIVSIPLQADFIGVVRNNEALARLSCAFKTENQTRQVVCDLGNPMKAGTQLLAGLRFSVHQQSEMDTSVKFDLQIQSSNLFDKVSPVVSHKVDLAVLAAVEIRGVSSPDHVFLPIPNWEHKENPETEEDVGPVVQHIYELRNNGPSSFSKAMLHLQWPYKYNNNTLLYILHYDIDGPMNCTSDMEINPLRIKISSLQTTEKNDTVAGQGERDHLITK
Chain of αvβ6 (P06756 890-1048 partner): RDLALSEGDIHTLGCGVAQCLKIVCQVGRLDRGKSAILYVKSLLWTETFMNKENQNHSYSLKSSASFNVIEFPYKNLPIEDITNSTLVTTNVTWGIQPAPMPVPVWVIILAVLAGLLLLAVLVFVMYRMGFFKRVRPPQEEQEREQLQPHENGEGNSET
Chain of αvβ6 (P18564 22-788): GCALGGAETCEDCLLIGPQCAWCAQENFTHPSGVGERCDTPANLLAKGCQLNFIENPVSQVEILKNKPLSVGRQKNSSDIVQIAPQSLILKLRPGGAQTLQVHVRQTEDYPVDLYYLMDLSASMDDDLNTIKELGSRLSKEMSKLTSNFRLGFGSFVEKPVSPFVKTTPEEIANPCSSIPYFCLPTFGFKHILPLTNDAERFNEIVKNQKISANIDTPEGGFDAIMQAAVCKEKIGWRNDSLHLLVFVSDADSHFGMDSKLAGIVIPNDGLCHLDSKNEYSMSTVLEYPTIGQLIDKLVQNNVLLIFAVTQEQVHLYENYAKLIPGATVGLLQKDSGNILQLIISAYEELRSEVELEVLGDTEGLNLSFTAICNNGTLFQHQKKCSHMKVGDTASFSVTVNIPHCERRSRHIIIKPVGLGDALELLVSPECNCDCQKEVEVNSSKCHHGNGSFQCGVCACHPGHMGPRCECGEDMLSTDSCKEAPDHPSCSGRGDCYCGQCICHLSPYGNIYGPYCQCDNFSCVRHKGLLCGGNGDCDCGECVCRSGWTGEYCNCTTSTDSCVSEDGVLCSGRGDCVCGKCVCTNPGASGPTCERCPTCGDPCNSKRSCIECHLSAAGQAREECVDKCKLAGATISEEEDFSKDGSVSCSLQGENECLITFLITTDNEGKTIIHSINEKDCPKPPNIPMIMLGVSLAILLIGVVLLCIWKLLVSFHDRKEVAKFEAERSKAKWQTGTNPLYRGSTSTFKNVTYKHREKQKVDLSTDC
Procedure: The aim of this Example is to assess target engagement of the disclosed compounds to αvβ6 in human participants with IPF using [^18F]FP-R01-MG-F2 PET/computerized tomography (CT) imaging.
This Example was conducted as an open-label, single-dose (60 mg, 120 mg, 240 mg or 320 mg) clinical trial evaluating αvβ6 receptor occupancy in the lungs, safety, and pharmacokinetics of Compound #5 in subjects with IPF. To date, 4 participants have completed the study. Each of these 4 participants was undergoing a pre-existing course of therapy using one of the SoC (Standard of Care) compounds, nintedanib. These participants continued their pre-existing nintedanib therapy throughout this study. Knottin tracer uptake kinetics were compared pre- and post-dose of the disclosed compound, as measured by standardized uptake values (SUVs) and parameters estimated from kinetic modeling in regions-of-interest on dynamic [^18F]FP-R01-MG-F2 PET/CT scans. […] Receptor occupancy was estimated from the output of the two-compartment model (VT, the […]) using standard equations and fitting algorithms, and corrections for VND (non-displaceable tracer binding). For example, in FIG. 10, the data points, shown as circles, are modeled by the following formula: […]
Five subjects with IPF were enrolled: Subject A received a single dose of 60 mg of the disclosed compound followed by a post-dose scan. Subject B received two doses of the disclosed compound separated by two weeks, 120 mg and 240 mg, each followed by a post-dose scan. Subject C received two doses of the disclosed compound separated by two weeks, 240 mg and 320 mg, each followed by a post-dose scan. Subject D received a single dose of 320 mg of the disclosed compound followed by a post-dose scan.

COCCN(CCCCc1ccc2c(n1)NCCC2)CC[C@H](Nc1ncnc2ccccc12)C(=O)O [Compound 5, (S)-4-((2-methoxyethyl)(4-(5,6,7,8-tetrahydro-1,8-naphthyridin-2-yl)butyl)amino)-2-(quinazolin-4-ylamino)butanoic acid]
lung Col1a1 expression vs DMSO control (lung Col1a1 expression): substantial, statistically significant | oral bioavailability and pharmacokinetics [1]: good oral bioavailability and pharmacokinetics | percent change of alveolar pSmad2/Smad2 from baseline at 24 hours vs placebo (pSmad2/Smad2): statistically significant | accumulated new collagen (% of lung collagen containing 2H-labeled hydroxyproline) ([2]; 1x and 5x dose PO BID 14 days): dose-dependent reduction | percent total collagen area in second harmonic generation lung images ([2]; 1x, 2.5x, 5x dose): substantial, statistically significant dose-dependent reduction | total pulmonary collagen (µg of hydroxyproline) ([2]; 1x, 2.5x, 5x dose PO BID 14 days): reduction in total pulmonary collagen | decrease in volume of distribution of the knottin radiotracer in the lungs (αvβ6; 60 mg dose): approximately 50% | decrease in volume of distribution of the knottin radiotracer in the lungs (αvβ6; 240 and 320 mg doses): greater than 95% | %DeltaVt (αvβ6; Subject A00, 60 mg single dose): 52.23% | Vs (Vt corrected for non-displaceable binding, VND=0.66) (αvβ6; Subject A00, 60 mg single dose): 1.18 | Vt (post-dose) (αvβ6; Subject A00, 60 mg single dose): 1.84 | %DeltaVt (αvβ6; Subject B120, 120 mg): 58.76% | Vs (Vt corrected for non-displaceable binding, VND=0.66) (αvβ6; Subject B120, 120 mg): 0.99 | Vt (post-dose) (αvβ6; Subject B120, 120 mg): 1.65 | %DeltaVt (αvβ6; Subject B240, 240 mg): 97.56% | Vs (Vt corrected for non-displaceable binding, VND=0.66) (αvβ6; Subject B240, 240 mg): 0.06 | Vt (post-dose) (αvβ6; Subject B240, 240 mg): 0.72 | %DeltaVt (αvβ6; Subject C240, 240 mg): 70.91% | Vs (Vt corrected for non-displaceable binding, VND=0.66) (αvβ6; Subject C240, 240 mg): 0.32 | Vt (post-dose) (αvβ6; Subject C240, 240 mg): 0.98 | %DeltaVt (αvβ6; Subject C320, 320 mg): 82.73% | Vs (Vt corrected for non-displaceable binding, VND=0.66) (αvβ6; Subject C320, 320 mg): 0.19 | Vt (post-dose) (αvβ6; Subject C320, 320 mg): 0.85 | %DeltaVt (αvβ6; Subject D320, 320 mg): 93.57% | Vs (Vt corrected for non-displaceable binding, VND=0.66) (αvβ6; Subject D320, 320 mg): 0.09 | Vt (post-dose) (αvβ6; Subject D320, 320 mg): 0.75 | αvβ6 receptor occupancy (αvβ6; lungs of IPF participants): about 100% | concentration at which the exposure response saturates (αvβ6; measured drug exposure at 4 hours): about 100 nM
